The source of these data is patent US12655365B2, “Low foam cleaning compositions” (ECOLAB USA INC., priority 2020, dated 2026).

Series [1] can be described thus: Foam evaluation (foam height). Type of series: physicochemical. Conditions: 1200 ppm solution in water; 120° F.; additive with quaternary ammonium compound. The procedure: The foaming properties of the quaternary ammonium compounds were evaluated and then tested for reduced foaming when traditional defoaming compounds were included. The foam height was determined with the following procedural steps: • 1. A 1200 ppm solution of the test composition was mixed in water. • 2. The foam height was measured immediately after mixing. • 3. The solution was agitated and the foam height was measured after 15 seconds. • 4. The solution was agitated and the solution was measured after another 45 seconds of agitation (60 seconds total since the solution was mixed). The temperature of the solution was at 120° F. for the duration of the test. As can been seen in FIGS. 1A and 1B, the various quaternary ammonium compounds tested provided significant foam height after mixing at after 15 seconds of agitation. The traditional defoamers had varying impacts on the foaming properties of the quaternary ammonium compounds.
The ability of the polycarboxylic acids and/or salts to control the foam of different quaternary ammonium compounds was also tested. The same procedural steps outlined above were followed. […].

Another series concerns E. coli (ATCC 11229). Put plainly: Antimicrobial evaluation, log reduction of microbial population. Type of series: cell-based. The following applies: pH 7, 500 ppm hard water, 120° F., about 30 seconds contact. As to the method: The quaternary ammonium compounds were tested for antimicrobial efficacy against exemplary bacteria (E. coli and S. aureus) under different pH conditions. For this evaluation, various test solutions were prepared in 500 ppm hard water at a temperature of 120° F. The microbial population was contacted with the test composition for about 30 seconds. The microbial population was measured before and after the contacting step and the difference was taken to identify the log reduction. The quaternary ammonium compounds tested, their concentrations, and the corresponding log reductions are shown below in Table 2.

For `O=S(=O)([O-])[O-].[Na+].[Na+]` [sodium sulfate], the “reduction to the foaming of quaternary ammonium compounds” value in series [1] is “did not”.
Take `O=C([O-])c1ccccc1.[Na+]` [sodium benzoate]: the “reduction to the foaming of quaternary ammonium compounds” value in series [1] is on record as “did not”.
Same read-out and setting: as for `CC(=O)O` [acetate], the entry is “did not”.
Take `CCCCCCCCCC[N+](C)(C)CCCCCCCCCC.[Cl-]` [Bardac 2250, didecyl dimethyl ammonium chloride]: the log reduction with E. coli (ATCC 11229) (30 ppm) was 3.33; in the series with E. coli (ATCC 11229) (40 ppm), 5.02; in the series on E. coli (ATCC 11229) (50 ppm) it was 6.71.
